Among the data in the Kinase Knowledgebase extract (Sharma et al. 2016) are IC50 values, retold here.

The assay concerns the target CDK2 (human) (UniProt P24941). Briefly: Cell-Based Assay.

In turn, `Cc1[nH]c(C#N)c(C)c1-c1ccnc(Nc2ccc(I)cc2)n1` displayed an IC50 (a549) of 0.51 µM; an IC50 (hela) of 0.09 µM; an IC50 (hs-27) of 35.1 µM; an IC50 (ht-29) of 0.11 µM; an IC50 (imr90) of 37.3 µM; an IC50 (mcf-7) of 0.45 µM. The IC50 is, setting by setting: (saos-2) 0.75 µM; (w138) 21.3 µM.
`Cc1[nH]c(CN2CCN(C)CC2)c(C)c1-c1ccnc(Nc2ccc(F)cc2)n1`: the IC50 by setting is: (a549) 13.8 µM; (ht-29) 5.09 µM; (saos-2) 14.2 µM.
Taken in the same sequence, the figures for `Cc1[nH]c(C#N)c(C)c1-c1ccnc(Nc2ccc(C(F)(F)F)cc2)n1` were 3.64 µM, 0.95 µM and 3.4 µM.
Regarding `Cc1[nH]c(C#N)c(C)c1-c1ccnc(Nc2cccc(O)c2)n1`, the IC50 (saos-2) was found to be 0.9 µM.
Regarding `Cc1cc(Nc2nccc(-c3c(C)[nH]c(C#N)c3C)n2)ccc1Cl`, the IC50 reads like this: (a549) 4.37 µM; (ht-29) 3.27 µM; (saos-2) 5.88 µM.
Taken in the same sequence, the figures for `CCN(CC)Cc1[nH]c(C)c(-c2ccnc(Nc3ccc(F)cc3)n2)c1C` were 0.97 µM, 1.31 µM and 1.61 µM.
`Cc1[nH]c(C#N)c(C)c1-c1ccnc(Nc2ccc(F)cc2)n1`: the IC50 runs as follows: (hs-27) 15.1 µM; (imr90) 20.8 µM; (w138) 9.6 µM.
With `Cc1[nH]c(C#N)c(C)c1-c1ccnc(Nc2ccc(N(C)C)cc2)n1`, the IC50 was determined as 1.41 µM (a549), 0.17 µM (ht-29) and 1.5 µM (saos-2).
The corresponding values for `Cc1[nH]c([N+](=O)[O-])c(C)c1-c1ccnc(Nc2ccc(N(C)C)cc2)n1` are 3.05 µM, 0.61 µM and 2.65 µM.
Taken in the same sequence, the figures for `Cc1ccc(Nc2nccc(-c3c(C)[nH]c(C#N)c3C)n2)cc1I` were 3.6 µM, 0.72 µM and 3.12 µM.
Taken in the same sequence, the figures for `Cc1c[nH]c(C)c1-c1ccnc(Nc2ccc(C(F)(F)F)cc2)n1` were 15 µM, 3.1 µM and 17 µM.
With `Cc1[nH]c(Br)c(C)c1-c1ccnc(Nc2cccc([N+](=O)[O-])c2)n1`, the IC50 runs as follows: (a549) 7.56 µM; (ht-29) 2.92 µM; (saos-2) 12.4 µM.
Taken in the same sequence, the figures for `Cc1ccc(Nc2nccc(-c3c(C)[nH]c(C#N)c3C)n2)cc1F` were 1.49 µM, 0.28 µM and 2.23 µM.
Consider `Cc1c[nH]c(C)c1-c1ccnc(Nc2ccc(I)c(Cl)c2)n1`, for which the IC50 (a549) worked out at 4.39 µM.
In the case of `Cc1[nH]c(CN(C)C)c(C)c1-c1ccnc(Nc2ccc(F)cc2)n1`, the IC50 is, setting by setting: (a549) 2.76 µM; (ht-29) 3.2 µM; (saos-2) 0.7 µM.
